From patent US8431523B2, “Oligomeric biosurfactants in dermatocosmetic compositions” (priority 2006, dated 2013)
Values belong to the compound of their own block, whether it stands above or below them. Non-standard residues stand in square brackets, D forms with d. Residues, ends and D or L forms follow the SMILES beside them. *: point of attachment. Myristoyl = CCCCCCCCCCCCCC(=O)*

Tests used:
[1] = system: E. coli, P. aeruginosa, P. cepacia, S. aureus, including MRSA, S. epidermidis, and C. albicans; type: cell-based
Description: By “antimicrobial” activity is meant the ability to inhibit the growth of at least one microbial organism selected from the group consisting E. coli, P. aeruginosa, S. aureus and C. albicans, as confirmed by optical density measurement (“OD”).
By “inhibition of growth” is meant reduction or absence of an increase greater than 5% in OD, a dimensionless measure of turbidity that is proportional to the amount of microbial cells present in a sample. For illustrative purposes, a OAB according to the present invention is added to a culture plate on which E. coli is present at a final concentration of about 5×10^3 cfu/ml. The plate is then incubated at about 37° C. for about 24 hours at which time the E. coli is resuspended by shaking, and OD is measured at about 600 nm. Thus, a reduction or absence of an increase greater than 5% in OD confirms the antimicrobial nature of the OAB with respect to E. coli.
Minimum inhibitory concentration (“MIC”) is a method well-known to those of skill in the art for expressing antimicrobial activity. A compound to be tested is serially diluted into growth medium, inoculated with culture and then incubated. The MIC is the lowest dilution of compound that inhibits or prevents growth of the target microorganism.
A further aspect of the present invention is directed to oligomeric acylated biosurfactants having a CMC of less than about 100 ppm in an aqueous environment of MEM Solution that reduces the surface tension of the MEM Solution to less than about […] where the OAB consists essentially of two to nine amino acid residues, at least one of which is charged, and has a MIC of less than 100 ppm for at least two of the following microorganisms: E. coli, P. aeruginosa, P. cepacia, S. aureus, including MRSA, S. epidermidis, and C. albicans. OABs meeting this criterion are selected from the group consisting of: Myr-GR-amide (P300); Myr-KK-amide (P315); Pal-HR-amide (P320); Myr-KK-acid (P347); SEQ ID NO 79 (P367); Myr-GHR-amide (P245); Pal-GHR-amide (P250); Myr-GRK-amide (P303); Pal-G-H—[R]^D-amide (P366); SEQ ID NO 84 (368); SEQ ID NO 58 (P370); SEQ ID NO 59 (P360); SEQ ID NO 60 (P373); SEQ ID NO 61 (P376); SEQ ID NO 62 (P369); SEQ ID NO 63 (P379); SEQ ID NO 64 (P381); SEQ ID NO 65 (P416); SEQ ID NO 66 (P383); and SEQ ID NO 67 (P289).

P. cepacia = assay: Minimum inhibitory concentration, P. cepacia; type: cell-based, Pseudomonas cepacia
Description: By “antimicrobial” activity is meant the ability to inhibit the growth of at least one microbial organism selected from the group consisting E. coli, P. aeruginosa, S. aureus and C. albicans, as confirmed by optical density measurement (“OD”). By “inhibition of growth” is meant reduction or absence of an increase greater than 5% in OD, a dimensionless measure of turbidity that is proportional to the amount of microbial cells present in a sample. For illustrative purposes, a OAB according to the present invention is added to a culture plate on which E. coli is present at a final concentration of about 5×10^3 cfu/ml. The plate is then incubated at about 37° C. for about 24 hours at which time the E. coli is resuspended by shaking, and OD is measured at about 600 nm. Thus, a reduction or absence of an increase greater than 5% in OD confirms the antimicrobial nature of the OAB with respect to E. coli. Minimum inhibitory concentration (“MIC”) is a method well-known to those of skill in the art for expressing antimicrobial activity. A compound to be tested is serially diluted into growth medium, inoculated with culture and then incubated. The MIC is the lowest dilution of compound that inhibits or prevents growth of the target microorganism.

fibroblast proliferation = assay: Cyquant Cell Proliferation Assay; type: cell-based
Method: For purposes of the present invention, proliferation is assessed using the Cyquant® Cell Proliferation Assay from Molecular Probes. This assay measures increased production of cellular nucleic acids that, in turn, results in increased binding of fluorescent dye.

Structure (SMILES): CCCCCCCCCCCCCC(=O)N[C@@H](CC(C)C)C(=O)N[C@@H](CCCCN)C(=O)N[C@@H](CCCCN)C(=O)N[C@@H](C)C(=O)N[C@@H](CC(C)C)C(=O)N[C@@H](CCCCN)C(N)=O [P296, Myr-LKKALK-amide] (Myristoyl-LKKALK-NH2)
- MIC(P. cepacia) (P. cepacia): ≤ 100 ppm
- increase fibroblast proliferation (qualitative) (fibroblast proliferation): increase fibroblast proliferation

Structure (SMILES): CCCCCCCCCCCCCC(=O)N[C@@H](C)C(=O)N[C@@H](Cc1c[nH]cn1)C(=O)N[C@@H](CCCNC(=N)N)C(N)=O [P322, Myr-AHR-amide] (Myristoyl-Ala-His-Arg-NH2)
- MIC(P. cepacia) (P. cepacia): ≤ 100 ppm
- increase fibroblast proliferation (qualitative) (fibroblast proliferation): increase fibroblast proliferation

Structure (SMILES): CCCCCCCCCCCCCC(=O)N[C@@H](CCCNC(=N)N)C(=O)N[C@@H](CCCNC(=N)N)C(=O)N[C@@H](CCCNC(=N)N)C(N)=O [P342, Myr-RRR-amide] (Myristoyl-Arg-Arg-Arg-NH2)
- MIC(P. cepacia) (P. cepacia): ≤ 100 ppm
- increase fibroblast proliferation (qualitative) (fibroblast proliferation): increase fibroblast proliferation

Structure (SMILES): CCCCCCCCCCCCCC(=O)N[C@@H](CCCCN)C(=O)N[C@@H](CCCCN)C(=O)N[C@@H](CCCCN)C(=O)O [P348, Myr-KKK-acid]
- MIC(P. cepacia) (P. cepacia): ≤ 100 ppm
- increase fibroblast proliferation (qualitative) (fibroblast proliferation): increase fibroblast proliferation

Structure (SMILES): CCCCCCCCCCCCCC(=O)N[C@@H](CCCCN)C(=O)N[C@@H](CCCCN)C(=O)N[C@@H](C)C(=O)N[C@@H](CC(C)C)C(=O)N[C@@H](CCCCN)C(=O)O [P349, Myr-KKALK-acid] (Myristoyl-KKALK-OH)
- MIC(P. cepacia) (P. cepacia): ≤ 100 ppm
- increase fibroblast proliferation (qualitative) (fibroblast proliferation): increase fibroblast proliferation

Structure (SMILES): CCCCCCCCCCCCCC(=O)N[C@@H](CCCCN)C(=O)N[C@@H](CCCCN)C(=O)N[C@@H](C)C(=O)N[C@@H](CC(C)C)C(=O)O [P362, Myr-KKAL-acid] (Myristoyl-KKAL-OH)
- MIC(P. cepacia) (P. cepacia): ≤ 100 ppm
- increase fibroblast proliferation (qualitative) (fibroblast proliferation): increase fibroblast proliferation

Structure (SMILES): CCCCCCCCCCCCCC(=O)N[C@@H](CCCCN)C(=O)N[C@@H](CCCCN)C(=O)NCC(=O)N[C@@H](CC(C)C)C(=O)N[C@@H](CCCCN)C(N)=O [P374, Myr-KKGLK-amide] (Myristoyl-KKGLK-NH2)
- MIC(P. cepacia) (P. cepacia): ≤ 100 ppm
- increase fibroblast proliferation (qualitative) (fibroblast proliferation): increase fibroblast proliferation

Structure (SMILES): CCCCCCCCCCCCCC(=O)N[C@@H](CCCCN)C(=O)N[C@@H](CCCCN)C(=O)NCC(=O)N[C@@H](CC(C)C)C(=O)N[C@H](CCCCN)C(N)=O [P394, Myr-KKGL-[K]^D-amide] (Myristoyl-KKGL[dK]-NH2)
- MIC(P. cepacia) (P. cepacia): ≤ 100 ppm
- increase fibroblast proliferation (qualitative) (fibroblast proliferation): increase fibroblast proliferation

Structure (SMILES): CCCCCCCCCCCCCC(=O)N[C@@H](CCCCN)C(=O)N[C@@H](CC(C)C)C(=O)N[C@@H](C)C(=O)N[C@@H](CCCCN)C(=O)N[C@@H](CCCCN)C(=O)N[C@H](CC(C)C)C(N)=O [P396, Myr-KLAKK-[L]^D-amide] (Myristoyl-KLAKK[dL]-NH2)
- MIC(P. cepacia) (P. cepacia): ≤ 100 ppm
- increase fibroblast proliferation (qualitative) (fibroblast proliferation): increase fibroblast proliferation

Structure (SMILES): CCCCCCCCCCCCCC(=O)NCC(=O)NCC(=O)N[C@@H](CCCCN)C(=O)N[C@@H](CCCNC(=N)N)C(N)=O [P399, Myr-GGKR-amide] (Myristoyl-GGKR-NH2)
- MIC(P. cepacia) (P. cepacia): ≤ 100 ppm
- increase fibroblast proliferation (qualitative) (fibroblast proliferation): increase fibroblast proliferation

Structure (SMILES): CCCCCCCCCCCCCC(=O)N[C@@H](C)C(=O)N[C@@H](C)C(=O)N[C@@H](CCCCN)C(=O)N[C@@H](CCCNC(=N)N)C(N)=O [P400, Myr-AAKR-amide] (Myristoyl-AAKR-NH2)
- MIC(P. cepacia) (P. cepacia): ≤ 100 ppm
- increase fibroblast proliferation (qualitative) (fibroblast proliferation): increase fibroblast proliferation

Structure (SMILES): CCCCCCCCCCCCCC(=O)N[C@@H](C)C(=O)N[C@@H](CCCCN)C(=O)N[C@@H](CCCCN)C(=O)NCC(=O)N[C@@H](CC(C)C)C(=O)N[C@H](CCCCN)C(N)=O [P402, Myr-AKKGL-[K]^D-amide] (Myristoyl-AKKGL[dK]-NH2)
- MIC(P. cepacia) (P. cepacia): ≤ 100 ppm
- increase fibroblast proliferation (qualitative) (fibroblast proliferation): increase fibroblast proliferation

Structure (SMILES): CCCCCCCCCCCCCC(=O)NCC(=O)N[C@@H](CCCCN)C(=O)N[C@@H](CCCCN)C(=O)N[C@@H](C)C(=O)N[C@@H](CC(C)C)C(=O)N[C@H](CCCCN)C(N)=O [P404, Myr-GKKAL-[K]^D-amide] (Myristoyl-GKKAL[dK]-NH2)
- MIC(P. cepacia) (P. cepacia): ≤ 100 ppm
- increase fibroblast proliferation (qualitative) (fibroblast proliferation): increase fibroblast proliferation

Second part, led by results:

- MIC for at least two of the listed microorganisms [1]: less than 100 ppm
Structure (SMILES): CCCCCCCCCCCCCC(=O)NCC(=O)N[C@@H](Cc1c[nH]cn1)C(=O)N[C@@H](CCCNC(=N)N)C(N)=O [P245, Myr-GHR-amide] (Myristoyl-Gly-His-Arg-NH2)

- MIC(P. cepacia) (P. cepacia): ≤ 100 ppm
Structure (SMILES): CCCCCCCCCCCCCC(=O)N[C@@H](CCCCN)C(=O)N[C@@H](CC(C)C)C(=O)N[C@@H](C)C(=O)N[C@@H](CCCCN)C(=O)N[C@@H](CCCCN)C(=O)O [P351, Myr-KLAKK-acid] (Myristoyl-KLAKK-OH)
- increase fibroblast proliferation (qualitative) (fibroblast proliferation): increase fibroblast proliferation

- MIC(P. cepacia) (P. cepacia): ≤ 100 ppm
Structure (SMILES): CCCCCCCCCCCCCC(=O)N[C@@H](CC(C)C)C(=O)N[C@@H](C)C(=O)N[C@@H](CCCCN)C(=O)N[C@@H](CCCCN)C(=O)O [P363, Myr-LAKK-acid] (Myristoyl-LAKK-OH)
- increase fibroblast proliferation (qualitative) (fibroblast proliferation): increase fibroblast proliferation

- MIC(P. cepacia) (P. cepacia): ≤ 100 ppm
Structure (SMILES): CCCCCCCCCCCCCC(=O)N[C@H](C(=O)N[C@@H](C)C(=O)N[C@@H](CCCCN)C(=O)N[C@@H](CCCCN)C(N)=O)[C@@H](C)CC [P371, Myr-IAKK-amide] (Myristoyl-IAKK-NH2)
- increase fibroblast proliferation (qualitative) (fibroblast proliferation): increase fibroblast proliferation

- MIC(P. cepacia) (P. cepacia): ≤ 100 ppm
Structure (SMILES): CCCCCCCCCCCCCC(=O)N[C@@H](CC(C)C)C(=O)N[C@@H](CO)C(=O)N[C@@H](CCCCN)C(=O)N[C@@H](CCCCN)C(N)=O [P372, Myr-LSKK-amide] (Myristoyl-LSKK-NH2)
- increase fibroblast proliferation (qualitative) (fibroblast proliferation): increase fibroblast proliferation

- MIC(P. cepacia) (P. cepacia): ≤ 100 ppm
Structure (SMILES): CCCCCCCCCCCCCC(=O)N[C@@H](CCCCN)C(=O)N[C@@H](CCCCN)C(=O)NCC(=O)N[C@H](C(=O)N[C@H](CCCCN)C(N)=O)[C@@H](C)CC [P390, Myr-KKG1-[K]^D-amide] (Myristoyl-KKGI[dK]-NH2)
- increase fibroblast proliferation (qualitative) (fibroblast proliferation): increase fibroblast proliferation

- MIC(P. cepacia) (P. cepacia): ≤ 100 ppm
Structure (SMILES): CCCCCCCCCCCCCC(=O)N[C@@H](CCCCN)C(=O)N[C@@H](CCCCN)C(=O)N[C@@H](CO)C(=O)N[C@@H](CC(C)C)C(=O)N[C@H](CCCCN)C(N)=O [P395, Myr-KKSL-[K]^D-amide] (Myristoyl-KKSL[dK]-NH2)
- increase fibroblast proliferation (qualitative) (fibroblast proliferation): increase fibroblast proliferation

- MIC(P. cepacia) (P. cepacia): ≤ 100 ppm
Structure (SMILES): CCCCCCCCCCCCCC(=O)N[C@@H](CO)C(=O)N[C@@H](CCCCN)C(=O)N[C@@H](CCCCN)C(=O)N[C@@H](C)C(=O)N[C@@H](CC(C)C)C(=O)N[C@H](CCCCN)C(N)=O [P408, Myr-SKKAL-[K]^D-amide] (Myristoyl-SKKAL[dK]-NH2)
- increase fibroblast proliferation (qualitative) (fibroblast proliferation): increase fibroblast proliferation
